Results published in patent US20250000874A1, “BACTERIAL METABOLITES AND THEIR USE IN REDUCING INFLAMMATION” (LOYOLA UNIVERSITY OF CHICAGO, priority 2023, published 2025).

Experiments:
THP-1 macrophages = test: Metabolites on LPS-stimulated TNFα/IL-6 production, THP-1 macrophages; format: cell-based, human; conditions: for IL-6 expression (FIG. 6): 10 μM JE, 10 μM MQ, 50 μM NC or combinations, 16 hours, 200 ng/ml LPS three hours; for LPS-stimulated macrophage production of IL-6 / LPS-stimulated macrophage production of TNFa: 10 or 50 μM, 16 hours pre-treatment, 200 ng/mL LPS 3 hours, ELISA
Description: (§1) FIG. 5A-C. Bacteria metabolites (MQ, JE, and NC) reduce expression of pro-inflammatory cytokines. Mouse macrophages cells, (FIG. 5A, FIG. 5B) Human Corneal Epithelial Cells (FIG. 5C) or THP-1 macrophages (FIG. 5D) were pre-treated with either 10 μM (3.5 μg/mL), 50 μM (17 μg/mL) of JE, 10UM (4.9 μg/mL), 50 μM (24 μg/mL) of MQ or combination of both for 16 hours, followed by 200 ng/mL of LPS to Mouse macrophages/THP1 cells, and 100 ng/ml of Flagellum to HCECs for 3 hours. The supernatants were collected and TNFα, IL-6 concentration was measured by ELISA. *, P<0.05, **. P<0.01, ***, P<0.001.
FIG. 6. Bacteria metabolites (MQ, JE, and NC) reduce IL-6 expression. THP-1 macrophages were pre-treated with either 10 μM (3.5 μg/mL) of JE, 10 μM (4.9 μg/mL) of MQ or 50UM of NC or different combinations of all three for 16 hours, followed by 200 ng/ml of LPS for three hours. Supernatants were collected and IL-6 concentration was measured by ELISA. **. P<0.01.
(§2) Next, the metabolites were tested individually to assess their regulatory effects on mouse macrophages and human THP-1 macrophages. Similar to the bacterial <10 kD supernatant fraction, both JE and MQ inhibited LPS-stimulated macrophage production of TNFa and IL-6 (FIG. 5), indicating it suppresses TLR4 agonist-induced production of pro-inflammatory cytokines by macrophages.
(§3) Cell Culture: Multiple macrophage cell lines were used in these experiments. Primary murine BMDMs were differentiated through isolation and treatment with L929 conditioned medium. C57BL/6 macrophages and BMDMs were seeded in complete DMEM (10% FBS+1% Penicillin-Streptomycin) in 24-well plates at concentrations of 5×10^5 and 2.5×10^5, respectively. THP-1 cells were maintained and grown in complete RPMI-1640 medium. Cells were differentiated by stimulating with PMA (100 nM) for three hours at 37° C. with 5% CO-2 until adherent. They were then collected and plated at a density of 2.5×10^5 cells per well in 24-well plates with serum-free RPMI and incubated overnight.

Mouse macrophages = test: Metabolites on LPS-stimulated TNFα/IL-6 production, mouse macrophages; format: cell-based; conditions: 10 or 50 μM, 16 hours pre-treatment, 200 ng/mL LPS 3 hours, ELISA
Description: as §1, §2, §3

[1] = system: CACO-2 epithelium cells / B6 Macrophages; test: CACO-2 trans-well system with macrophages in lower well, metabolites JE, MQ, NC; format: cell-based; conditions: for ability to cross the tight junctions of epithelial cells: 50 μM in upper well on CACO-2 cells, overnight; for TNFα production by cells in lower chamber: 50 μM in upper well overnight, 200 ng/ml LPS 3 hours
Description: FIG. 8A-8B. The assessment of the permeability of the differentiated CACO-2 epithelium cells after the treatment of JE, MQ, and NC in trans-well system. (FIG. 8A) CACO-2 cells were seeded in the upper well, and B6 Macrophages were placed into the lower well. 50UM of JE, MQ, NC, or combination of all three was added to CACO-2 cells in the upper well. Samples and controls were incubated overnight at 37° C., 5% CO2, followed by the addition of 200 ng/ml LPS to the upper and lower wells for 3 hours (Left: lower chambers, right: upper chambers). Cell culture supernatants were collected and an ELISA was used to measure TNFα or IL-6 concentrations. (FIG. 8B) FitC-dextrans (4 KDa) were added into the upper chamber simultaneously as the sample tests were added. A high concentration of hydrochloric acid (HCl) as a control was added to the upper chamber to disrupt the tight junctions. FitC-dextran collected from the bottom chamber was measured by a fluorescence spectrometer (excitation, 490 nm; emission, 520 nm). Data shown are representative mean±s.d. (***, p<0.001, **, p<0.01).
As stated before, commensal bacteria are non-invading and the metabolites must be able to cross the epithelium to mediate their functions and our earlier data confirmed <10 kD fraction pertained this ability. Therefore, we used the trans-well system to test if the identified metabolites were able to cross the epithelium. As we did previously, Caco-2 cells were culture for 2 weeks, to allow tight junctions to form. While the lower chamber contained C57BL/6 mouse BMDMs. We then measured the ability for NC, MQ and JE to cross the tight junctions without disrupting the integrity of the tight junctions. We did each separately and combined as well.

NLRP3 inflammasome [2] = test: Metabolites on IL-1β production after LPS priming and ATP, THP-1 macrophages; format: cell-based, human; conditions: 10 or 50 μM 16 hours, 200 ng/ml LPS three hours, 5 mM ATP one hour
Description: (§4) FIG. 7A-7B. Bacteria metabolites (MQ and JE) reduce IL-1β expression. Murine macrophages, (FIG. 7A) or THP-1 macrophages (FIG. 7B) were pre-treated with either 10 μM (3.5 μg/mL), 50 μM (17 μg/mL) of JE, 10 μM (4.9 μg/mL), 50 μM (24 μg/mL) of MQ or combination of both for 16 hours. Macrophages were primed with 200 ng/ml of LPS for three hours, followed by inflammasome activation with 5 mM ATP for one hour. Supernatants were collected, IL-1B was measured by ELISA. ***, P<0.001
as §2

NLRP3 inflammasome [3] = test: Metabolites on IL-1β production after LPS priming and ATP, murine macrophages; format: cell-based, mouse; conditions: 10 or 50 μM 16 hours, 200 ng/ml LPS three hours, 5 mM ATP one hour
Description: as §4, §2

Row | Molecule | IL-6 expression (FIG. 6) (THP-1 macrophages) | LPS-stimulated macrophage production of IL-6 (THP-1 macrophages) | LPS-stimulated macrophage production of TNFa (THP-1 macrophages) | LPS-stimulated macrophage production of IL-6 (Mouse macrophages) | LPS-stimulated macrophage production of TNFa (Mouse macrophages) | ability to cross the tight junctions of epithelial cells [1] | TNFα production by cells in lower chamber [1] | IL-β production stimulated by LPS and ATP (NLRP3 inflammasome [2]) | IL-β production stimulated by LPS and ATP (NLRP3 inflammasome [3])
1 | Prednicarbate [MQ] | reduce | inhibited | inhibited | inhibited | inhibited | can pass through | suppress | inhibited | inhibited
2 | CCCCCCCCCCCCCCCC(=O)N[C@@H](C(=O)O)[C@H](C)O [NC, N-Palmitoyl-D-Threonine] | reduce |  |  |  |  | can pass through | suppress |  | 
3 | CC(=O)O[C@@H]1CC[C@H]2[C@H]3CC[C@H]4CC(F)(F)CC[C@]4(C)[C@H]3CC[C@]12C [JE, 3,3-Difluoro-5-alpha-androstan-17-beta-yl acetate] | reduce | inhibited | inhibited | inhibited | inhibited |  | suppress | inhibited | inhibited
